Measured values: patent US20070207093A1, “Hydrazone derivatives and uses thereof” (Linquagen Corp., priority 2005, published 2007)

Assays:
Assay type in all cases: cell-based
human TRPM5 ion channel = target: T1, human TRPM5 ion channel (Homo sapiens, UniProt Q9NZQ8); test: TRPM5 FLIPR membrane potential screening assay (ATP stimulation); settings: 10 μM compound; HEK293 cells stably expressing human TRPM5; 3 μM ATP stimulation; versus negative control wells; read-out: TRPM5 Activity (percent inhibition)
T1 construct: expressed in transfected cells
T1 sequence (Q9NZQ8 1-1165): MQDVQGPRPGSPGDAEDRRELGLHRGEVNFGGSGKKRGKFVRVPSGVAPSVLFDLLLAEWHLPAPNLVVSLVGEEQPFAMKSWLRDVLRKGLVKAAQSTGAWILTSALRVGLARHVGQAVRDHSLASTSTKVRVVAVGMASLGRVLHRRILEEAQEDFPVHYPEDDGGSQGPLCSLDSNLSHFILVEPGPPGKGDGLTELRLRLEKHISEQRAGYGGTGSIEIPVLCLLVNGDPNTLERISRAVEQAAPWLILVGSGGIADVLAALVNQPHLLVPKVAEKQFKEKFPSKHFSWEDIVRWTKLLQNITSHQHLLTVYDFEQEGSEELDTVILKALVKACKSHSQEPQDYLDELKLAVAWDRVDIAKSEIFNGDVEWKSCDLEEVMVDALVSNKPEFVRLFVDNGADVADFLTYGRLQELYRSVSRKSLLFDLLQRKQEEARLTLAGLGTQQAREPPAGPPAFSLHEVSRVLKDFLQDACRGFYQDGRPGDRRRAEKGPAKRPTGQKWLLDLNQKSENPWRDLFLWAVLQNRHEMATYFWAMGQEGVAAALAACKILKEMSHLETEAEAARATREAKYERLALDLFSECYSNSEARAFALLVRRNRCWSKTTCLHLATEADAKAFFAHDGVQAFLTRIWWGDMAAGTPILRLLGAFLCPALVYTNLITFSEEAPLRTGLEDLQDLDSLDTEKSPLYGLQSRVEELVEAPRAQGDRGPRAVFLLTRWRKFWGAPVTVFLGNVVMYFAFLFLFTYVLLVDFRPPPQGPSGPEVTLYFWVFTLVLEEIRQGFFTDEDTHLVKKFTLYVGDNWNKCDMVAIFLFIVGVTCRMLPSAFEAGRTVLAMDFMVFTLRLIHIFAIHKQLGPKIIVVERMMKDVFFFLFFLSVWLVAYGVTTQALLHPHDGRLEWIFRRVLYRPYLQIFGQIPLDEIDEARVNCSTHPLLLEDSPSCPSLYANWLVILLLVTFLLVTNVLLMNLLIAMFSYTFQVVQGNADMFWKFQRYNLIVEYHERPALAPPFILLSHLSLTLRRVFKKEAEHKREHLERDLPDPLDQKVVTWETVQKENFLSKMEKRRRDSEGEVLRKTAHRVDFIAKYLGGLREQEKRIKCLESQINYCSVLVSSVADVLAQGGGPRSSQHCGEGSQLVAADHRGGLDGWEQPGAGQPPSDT
Procedure: The activity of human TRPM5 ion channel was measured in live cells on a fluorescent imaging plate reader (FLIPR). The basis of the assay (shown in FIG. 1) is the calcium-dependent activation of the ion channel which occurs via by activation of a G-protein coupled receptor (GPCR). GPCR activation by an appropriate agonist causes a transient increase in […] Ca^2+ ion concentration which in turn causes the ion channel to open, letting in Na^+ ions. This influx causes a change in the membrane potential of the cell which can be monitored as a change in the fluorescent signal from voltage-dependent (membrane potential) fluorescent dyes.
For the screening assay, the human TRPM5 gene was cloned, put into HEK293 cells, and a stable, high expression clone was used for screening. Cells were grown in standard media at 37° C. The day before screening, the cells were removed from flasks and added to 384 well clear bottom plates (8K cells in 20 μL/well). On the assay day, 20 μL of membrane potential dye (Part No. R8123, Molecular Devices Corp.) was added to the cells and dye was allowed to be taken up, i.e., load, into the cells for 1 hr at 37° C. […] The assay was started by addition of 10 μL of solution from the compound plate into the cell plate. During this process, continuous fluorescent recordings were made simultaneously for all wells. After addition of the compound solution, the tips were automatically washed and a stimulation solution of 3 μM ATP (an agonist for an endogenous purinurgic GPCR, was added to all wells of the cell plate. The height of the response was calculated and percent inhibition values, versus negative control wells, was calculated for the test samples.
(§1) Unless otherwise indicated, the data in the table below were determined using the three assays described above, providing percent inhibition data at 10 μM.

[1] = system: GPCR-mediated calcium activation step; test: Calcium counterscreen (calcium sensitive dye, ATP stimulation); settings: Homo sapiens, 10 μM compound, same HEK293 TRPM5 cells, Calcium3 dye, read-out: Calcium Counterscreen (percent inhibition)
Procedure: (§2) Two counterscreen assays were run on separate cell plates utilizing the same cells as described above. In the calcium counterscreen, the cells were loaded with a calcium sensitive dye (Calcium3 Dye, Part no. 8090, Molecular Devices Corp.) and stimulated by ATP to check for compounds that block the GPCR-mediated calcium activation step. In the KCl counterscreen, cells are stimulated with 10 mM KCl instead of ATP to check for compounds that inhibit the membrane potential response by virtue of being non-specific ion channel blockers.
as §1

[2] = system: membrane potential response (non-specific ion channel block); test: KCl counterscreen (membrane potential dye, 10 mM KCl stimulation); settings: Homo sapiens; 10 μM compound; same HEK293 TRPM5 cells; 10 mM KCl instead of ATP; read-out: KC1 Counterscreen (percent inhibition)
Procedure: as §2, §1

inhibition at 10 µM (human TRPM5 ion channel) [%]	SMILES	inhibition at 10 µM [1] [%]	inhibition at 10 µM [2] [%]
60	COC(=O)c1ccc(/N=N/C(=N\Nc2nc3ccccc3s2)C(C)C)cc1 [Example 1, Methyl 4-((E)-((Z)-1-(2-(benzo[d]thiazol-2-yl)hydrazono) -2-methylpropyl)diazenyl)benzoate]	-11	20
87	O=C(O)COc1ccc(Br)cc1/C=N/Nc1cccc2cccnc12 [Example 2, (E)-2-(4-Bromo-2-((2-(quinolin-8-yl)hydrazono)methyl)phenoxy)acetic acid]	-10	70
99	COc1ccc(/C=N/NC(=O)C2CC2c2ccccc2)cc1OC (stereo not drawn) [Example 4, (E)-N′-(3,4-Dimethoxybenzylidene)-2-phenylcyclopropanecarbohydrazide]	-1	-4
96	COc1ccc(/C=N/NC(=O)CC(CO)C2=CCCCC2)cc1 (stereo not drawn) [Example 5, (E)-3-Cyclohexenyl-4-hydroxy-N′-(4-methoxybenzylidene)butanehydrazide]	-7	29
93	CCCCCCCC(O)CCC(=O)N/N=C/c1ccc(OC)c(OC)c1 (stereo not drawn) [Example 6]	0	-15
83	O=C(O)c1ccccc1N/N=C(\N=N\c1ccccc1)c1ccccc1 [Example 7, 2-((Z)-2-(Phenyl-((E)-phenyldiazenyl) -methylene)hydrazinyl)benzoic acid]	-17	81
76	COc1ccc(/C=N/NC(=O)COc2cccc(C)c2)cc1OC [Example 8, (E)-N′-(3,4-Dimethoxybenzylidene)-2-(m-tolyloxy)acetohydrazide]	-3	7
80	C=CCOc1ccc(/C=N/NC(=O)CSCc2cccc(Br)c2)cc1OC [Example 9, (E)-N′-(4-(Allyloxy)-3-methoxybenzylidene)-2-(3-bromobenzylthio)acetohydrazide]	2	21
78	CC(C)c1ccc(/C=N/NC(=O)C2C3CCCCC32)cc1 (stereo not drawn) [Example 10, (E)-N′-(4-Isopropylbenzylidene)bicyclo[4.1.0.]heptane-7-carbohydrazide]	-38	-11
67	CN1/C(=C\C=N\Nc2ccc([N+](=O)[O-])cc2)C(C)(C)c2ccccc21 [Example 11, (Z)-1,3,3-Trimethyl-2-((E)-2-(2-(4-nitrophenyl)hydrazono)ethylidene)indoline]	23	14
48	CCN(CC)c1ccc(/C=N/NC(=O)C2CC2c2ccccc2)c(O)c1 (stereo not drawn) [Example 12, (E)-N′-(4-(Diethylamino)-2-hydroxybenzylidene) -2-phenylcyclopropanecarbohydrazide]	-35	-7
78	Cc1ccc2c(c1)/C(=N/NC(=O)/C(=C\c1ccccc1)NC(=O)c1ccccc1)C(=O)N2C [Example 14, N-((E)-3-((Z)-2-(1,5-Dimethyl-2-oxoindolin-3-ylidene)hydrazinyl)-3-oxo-1-phenylprop-1-en-2-yl)benzamide]	-29	40
74	CCCCn1cc(/C=N\Nc2ccccc2C(=O)O)c2ccccc21 [Example 15, (Z)-2-(2-((1-Butyl-1H-indol-3-yl)methylene)hydrazinyl)benzoic acid]	4	43
74	C(=N\N(Cc1ccccc1)c1ccccc1)/c1ccncc1 [Example 16, (E)-4-((2-Benzyl-2-phenylhydrazono)methyl)pyridine]	-6	-2
40	O=C(N/N=C\c1ccc[nH]1)C12CC3CC(CC(C3)C1)C2 [Example 17, (Z)-N′-((1H-Pyrrol-2-yl)methylene)tricyclo [3.3.1^3,7]decane-3-carbohydrazide]	-13	8
87	CCN(CCO)c1ccc(N/N=C2\C(=O)C=Cc3ccccc32)cc1 [Example 18, (Z)-1-(2-(4-(Ethyl-(2-hydroxyethyl)-amino)phenyl)hydrazono)naphthalen-2(1H)-one]	-9	33
65	CN(/N=C/c1ccc(O)cc1O)c1ncc(Cl)cc1C(F)(F)F [Example 19, (E)-4-((2-(5-Chloro-3-(trifluoromethyl)pyridini-2-yl)-2-2-methylhydrazono)methyl)benzene-1,3-diol]	5	36
70	Cc1ccc(NCC(=O)N/N=C/c2ccc(N3CCOCC3)c([N+](=O)[O-])c2)cc1C [Example 20, (E)-2-(3,4-Dimethylphenylamino)-N′-(4-morpholino-3-nitrobenzylidene)acetohydrazide]	-3	16
58	CCN(CC)c1ccc(/C=N/Nc2nc3ccccc3[nH]2)c(O)c1 [Example 22, (E)-2-((2-(1H-Benzo[d]imidazol-2-yl)hydrazono)methyl)-5-(diethylamino)phenol]	-23	32

SMILES	inhibition at 10 µM (human TRPM5 ion channel) [%]	inhibition at 10 µM [1] [%]	inhibition at 10 µM [2] [%]
N#CC(C#N)=NNc1ccc(SC(F)(F)F)cc1 [Example 13, (4-(Trifluoromethylthio)penyl)carbonohydrazonoyldicyanide]	78	2	65
O=[N+](O)c1ccc(N2CCCC2)cc1N/N=C1\CN2CCC1CC2 [Example 21]	51	6	42
